Measured values taken from patent US7001897B2, “1-methylcarbapenem derivatives” (Sankyo Company, Limited, priority 2000, dated 2006).
≈ marks a conversion by molar mass, not a printed value. Where a name gives a salt, the structure may show the parent alone. Read-outs that look alike come from different tables or passages of the source.

How the values were obtained:
[1] = Pharmacokinetics, plasma concentration by bioassay after subcutaneous injection; format: in vivo; details: mouse, sc, mice (ddY, male), 20 mg/kg subcutaneous; for AUC: read-out: AUCall (area under the concentration-time curve in plasma); for Cmax: read-out: Cmax (maximal plasma concentration); for half-life: read-out: T1/2 (half-life in plasma concentration) (converted)
Procedure: The compounds of the present invention compound (20 mg/kg) was subcutaneously injected to mice (n=3, ddY, male, purchased from SLC Japan). The plasma concentration of the compound was determined by a bioassay method at 5, 15, and 30 min, and 1, 1.5, and 2 hr after administration. In the Table, Cmax, T1/2, and AUCall indicate the maximal plasma concentration, half-life in plasma concentration, and area under the concentration-time curve in plasma of the compound, respectively.

[2] = test system: Haemophilis influenzae strain 9787 (a strain producing β-lactamase); experiment: In vitro antibacterial activity, agar plate dilution method; format: cell-based; details: read-out: Minimum Concentration to Inhibit Growth of the Employed Bacteria C
Procedure: (§1) To assess the antibacterial activities of the compounds, the minimum concentrations (μg/ml) of the compounds to inhibit growth of various pathogenic bacteria were determined by agar plate dilution method. In this Table, the employed bacteria A, B, and C were as follow: • A: Staphylococcus aureus • B: Streptococcus pneumoniae • C: Haemophilis influenzae strain 9787 (a strain producing β-lactamase)

Streptococcus pneumoniae = experiment: as above; format: cell-based; details: read-out: Minimum Concentration to Inhibit Growth of the Employed Bacteria B
Procedure: as §1

Staphylococcus aureus = experiment: as above; format: cell-based; details: read-out: Minimum Concentration to Inhibit Growth of the Employed Bacteria A
Procedure: as §1

[3] = test system: S. pneumoniae 9605 (PRSP); experiment: In vivo antibacterial activity, intraperitoneal infection of mice; details: Streptococcus pneumoniae, 168 h; male ddY mice, i.p. S. pneumoniae 9605 (PRSP), single subcutaneous treatment, Probit method from survival rates 7 days after infection
Procedure: Male ddY mice of 4 weeks old (purchased from SLC Japan) were intraperitoneally inoculated with S. pneumoniae 9605 (PRSP) at a volume of 0.2 ml (containing 5% mucin, 1-5×10^3 colony forming unit (cfu)/mouse). Immediately after the mice were infected, they were subcutaneously treated with the test compound singly at a volume of 0.1 ml. Seven mice were used per group. A solution of the test compound prepared by 2-step dilution was used for the experiment. ED50 values of the compounds were calculated by the Probit method from survival rates 7 days after infection.

[4] = C: Haemophilis influenzae strain 9787 (β-lactamase producing), agar plate dilution
[5] = B: Streptococcus pneumoniae, agar plate dilution
[6] = A: Staphylococcus aureus, agar plate dilution

| Structure (SMILES) | MIC [2, 4] [µg/mL] | MIC (Streptococcus pneumoniae; [5]) [µg/mL] | MIC (Staphylococcus aureus; [6]) [µg/mL] | also measured |
| --- | --- | --- | --- | --- |
| C[C@@H](O)[C@H]1C(=O)N2C(C(=O)[O-])=C(SC3CN(c4nc(C(=O)N5CCOCC5)cs4)C3)[C@H](C)[C@H]12.[Na+] [Example 11, (1R,5S,6S)-2-[1-(4-Morpholinocarbonyl-1,3-thiazol-2-yl)azetidin-3-yl]thio-6-[(R)-1-hydroxyethyl]-1-methylcarbapen-2-em-3-carboxylic acid sodium salt] | – | – | – | AUC [1]: 40400 ng·h/mL; Cmax [1]: 56.6 µg/mL; half-life [1]: 19.8 min |
| C[C@@H](O)[C@H]1C(=O)N2C(C(=O)[O-])=C(SC3CN(c4nc(C(N)=O)cs4)C3)[C@H](C)[C@H]12.[Na+] [Example 3, (1R,5S,6S)-2-[1-(4-Carbamoyl-1,3-thiazol-2-yl)azetidin-3-yl]thio-6-[(R)-1-hydroxyethyl]-1-methylcarbapen-2-em-3-carboxylic acid sodium salt] | 0.1 | 0.2 | 0.05 | AUC [1]: 83900 ng·h/mL; Cmax [1]: 127 µg/mL; half-life [1]: 15 min |
| C[C@@H](O)[C@H]1C(=O)N2C(C(=O)O)=C(SC3CN(c4nc(CNC(=O)c5ccco5)cs4)C3)[C@H](C)[C@H]12 [Example 72, (1R,5S,6S)-2-(1-{4-[(furan-2-carbonylamino)methyl]-1,3-thiazol-2-yl}azetidin-3-yl)thio-6-[(R)-1-hydroxyethyl]-1-methylcarbapen-2-em-3-carboxylic acid sodium salt] | 0.2 | 0.025 | ≤ 0.012 | – |
| CNC(=O)c1csc(N2CC(SC3=C(C(=O)[O-])N4C(=O)[C@H]([C@@H](C)O)[C@H]4[C@H]3C)C2)n1.[Na+] [Example 5, (1R,5S,6S)-2-[1-(4-N-Methylcarbamoyl-1,3-thiazol-2-yl)azetidin-3-yl]thio-6-[(R)-1-hydroxyethyl]-1-methylcarbapen-2-em-3-carboxylic acid sodium salt] | 0.2 | 0.2 | 0.05 | – |
| C[C@@H](O)[C@H]1C(=O)N2C(C(=O)[O-])=C(SC3CN(c4nc(C#N)cs4)C3)[C@H](C)[C@H]12.[Na+] [Example 4, (1R,5S,6S)-2-[1-(4-Cyano-1,3-thiazol-2-yl)azetidin-3-yl]thio-6-[(R)-1-hydroxyethyl]-1-methylcarbapen-2-em-3-carboxylic acid sodium salt] | – | – | – | MIC [2]: 0.2 µg/mL; MIC (Streptococcus pneumoniae; Streptococcus pneumoniae): 0.2 µg/mL; MIC (Staphylococcus aureus; Staphylococcus aureus): 0.05 µg/mL; AUC ([1]; in vivo): 165000 ng·h/mL; Cmax ([1]; in vivo): 157 µg/mL; half-life ([1]; in vivo): 61.2 min |
| C[C@@H](O)[C@H]1C(=O)N2C(C(=O)[O-])=C(SC3CN(c4nc(C(N)=O)co4)C3)[C@H](C)[C@H]12.[Na+] [Example 22, (1R,5S,6S)-2-[1-(4-Carbamoyl-1,3-oxazol-2-yl)azetidin-3-yl]thio-6-[(R)-1-hydroxyethyl]-1-methylcarbapen-2-em-3-carboxylic acid sodium salt] | 0.1 | 0.2 | 0.05 | – |
| C[C@@H](O)[C@H]1C(=O)N2C(C(=O)O)=C(SC3CN(c4nc(C(=O)N[C@H]5CCNC5)co4)C3)[C@H](C)[C@H]12 [Example 80, (1R,5S,6S)-2-{1-[4-((3S)-pyrrolidin-3-ylcarbamoyl)-1,3-oxazol-2-yl]azetidin-3-yl}thio-6-[(R)-1-hydroxyethyl]-1-methylcarbapen-2-em-3-carboxylic acid] | 0.39 (≈ 0.817 µM) | 0.2 (≈ 0.419 µM) | 0.025 (≈ 0.0524 µM) | – |
| C[C@@H](O)[C@H]1C(=O)N2C(C(=O)[O-])=C(SC3CN(c4nc(C(=O)N5CCC5)cs4)C3)[C@H](C)[C@H]12.[Na+] [Example 24, (1R,5S,6S)-2-[1-(4-Azetidinocarbonyl-1,3-thiazol-2-yl)azetidin-3-yl]thio-6-[(R)-1-hydroxyethyl]-1-methylcarbapen-2-em-3-carboxylic acid sodium salt] | 0.05 | 0.025 | ≤ 0.012 | – |
| C[C@@H](O)[C@H]1C(=O)N2C(C(=O)[O-])=C(SC3CN(c4nc(C(=O)N5CCSCC5)cs4)C3)[C@H](C)[C@H]12.[Na+] [Example 25, (1R,5S,6S)-2-[1-(4-Thiomorpholinocarbonyl-1,3-thiazol-2-yl)azetidin-3-yl]thio-6-[(R)-1-hydroxyethyl]-1-methylcarbapen-2-em-3-carboxylic acid sodium salt] | 0.39 | 0.1 | 0.025 | – |
| C[C@@H](O)[C@H]1C(=O)N2C(C(=O)O)=C(SC3CN(c4nc(CNC(=O)c5cccs5)cs4)C3)[C@H](C)[C@H]12 [Example 71, (1R,5S,6S)-2-(1-{4-[(Thiophene-2-carbonylamino)methyl]-1,3-thiazol-2-yl}azetidin-3-yl)thio-6-[(R)-1-hydroxyethyl]-1-methylcarbapen-2-em-3-carboxylic acid sodium salt] | 0.39 | ≤ 0.012 | ≤ 0.012 | – |

Further lines, with some results ahead:

| MIC [2, 4] [µg/mL] | MIC (Streptococcus pneumoniae; [5]) [µg/mL] | MIC (Staphylococcus aureus; [6]) [µg/mL] | Structure (SMILES) | also measured |
| --- | --- | --- | --- | --- |
| 0.2 (≈ 0.417 µM) | 0.2 (≈ 0.417 µM) | ≤ 0.012 | C[C@@H](O)[C@H]1C(=O)N2C(C(=O)O)=C(SC3CN(c4nc(C(=O)NC5CNC5)cs4)C3)[C@H](C)[C@H]12 [Example 59, (1R,5S,6S)-2-{1-[4-(azetidin-3-ylcarbamoyl)-1,3-thiazol-2-yl]azetidin-3-yl}thio-6-[(R)-1-hydroxyethyl]-1-methylcarbapen-2-em-3-carboxylic acid] | ED50 [3]: 1.08 mg/kg |
| 0.78 | ≤ 0.012 | ≤ 0.012 | C[C@@H](O)[C@H]1C(=O)N2C(C(=O)O)=C(SC3CN(c4nc(CNC(=O)c5ccccc5)cs4)C3)[C@H](C)[C@H]12 [Example 69, (1R,5S,6S)-2-{1-[4-(benzoylaminomethyl)-1,3-thiazol-2-yl]azetidin-3-yl}thio-6-[(R)-1-hydroxyethyl]-1-methylcarbapen-2-em-3-carboxylic acid sodium salt] | – |
| 0.39 (≈ 0.834 µM) | 0.2 (≈ 0.428 µM) | 0.025 (≈ 0.0535 µM) | C[C@@H](O)[C@H]1C(=O)N2C(C(=O)O)=C(SC3CN(c4nc(C(=O)NCCN)cs4)C3)[C@H](C)[C@H]12 [Example 61, (1R,5S,6S)-2-{1-[4-((2-aminoethyl)carbamoyl)-1,3-thiazol-2-yl]azetidin-3-yl}thio-6-[(R)-1-hydroxyethyl]-1-methylcarbapen-2-em-3-carboxylic acid] | ED50 [3]: 1.79 mg/kg |
| 0.2 (≈ 0.394 µM) | 0.2 (≈ 0.394 µM) | 0.05 (≈ 0.0985 µM) | C[C@@H](O)[C@H]1C(=O)N2C(C(=O)O)=C(SC3CN(c4nc(C(=O)NC5CCNCC5)cs4)C3)[C@H](C)[C@H]12 [Example 56, (1R,5S,6S)-2-{1-[4-(piperidin-4-ylcarbamoyl)-1,3-thiazol-2-yl]azetidin-3-yl}thio-6-[(R)-1-hydroxyethyl]-1-methylcarbapen-2-em-3-carboxylic acid] | – |
| 0.39 (≈ 0.817 µM) | 0.2 (≈ 0.419 µM) | ≤ 0.012 | C[C@@H](O)[C@H]1C(=O)N2C(C(=O)O)=C(SC3CN(c4nc(C(=O)N[C@@H]5CCNC5)co4)C3)[C@H](C)[C@H]12 [Example 81, (1R,5S,6S)-2-{1-[4-((3R)-pyrrolidin-3-ylcarbamoyl)-1,3-oxazol-2-yl]azetidin-3-yl}thio-6-[(R)-1-hydroxyethyl]-1-methylcarbapen-2-em-3-carboxylic acid] | – |
| 0.1 | 0.2 | 0.05 | C[C@@H](O)[C@H]1C(=O)N2C(C(=O)[O-])=C(S[C@@H]3CCN(c4nc(C(N)=O)cs4)C3)[C@H](C)[C@H]12.[Na+] [Example 19, (1R,5S,6S)-2-[(3R)-1-(4-Carbamoyl-1,3-thiazol-2-yl)pyrrolidin-3-yl]thio-6-[(R)-1-hydroxyethyl]-1-methylcarbapen-2-em-3-carboxylic acid sodium salt] | – |
| 0.2 | 0.2 | 0.05 | C[C@@H](O)[C@H]1C(=O)N2C(C(=O)[O-])=C(SC3CN(c4nc(C(=O)N(C)C)cs4)C3)[C@H](C)[C@H]12.[Na+] [Example 6, (1R,5S,6S)-2-[1-(4-N,N-Dimethylcarbamoyl-1,3-thiazol-2-yl)azetidin-3-yl]thio-6-[(R)-1-hydroxyethyl]-1-methylcarbapen-2-em-3-carboxylic acid sodium salt] | – |
